Assay results: EP4585599A1, “NITROGEN-CONTAINING FUSED RING COMPOUND, INTERMEDIATE THEREOF, PREPARATION METHOD THEREFOR AND USE THEREOF” (Hangzhou Synrx Therapeutics Biomedical Technology Co., Ltd., priority 2022, dated 2024)
pIC50: −log10 of the molar value. Structures can show the parent of a compound that is named as a salt. Where two headings read alike, the source gives them in different places.

Tests used:
cells = conditions: Homo sapiens, DLD-1, 240 h
[1] = molecular target: T1, helicase domain of the Pol θ protein (Homo sapiens, UniProt O75417); assay: Biochemical Activity Assay (ADP Glo Assay) of Pol θ inhibitor, ATPase activity; conditions: for pIC50: read-out: Biochemical assay IC50; for IC50: Biochemical assay IC50 (nM)
T1 construct: The helicase domain of the Pol θ protein was purified from insect protein expression system; made in house; host or cells: insect protein expression system

[2] = read-out: Cell viability assay IC50 (nM), CTG assay, CellTiter Glo, read on Day 10, cell line not given
[3] = ADP-Glo assay, ATPase activity of Pol θ helicase domain, ssDNA substrate
[4] = read-out: Cell viability assay IC50 (nM)

T1 sequence (O75417 102-554 limits assumed): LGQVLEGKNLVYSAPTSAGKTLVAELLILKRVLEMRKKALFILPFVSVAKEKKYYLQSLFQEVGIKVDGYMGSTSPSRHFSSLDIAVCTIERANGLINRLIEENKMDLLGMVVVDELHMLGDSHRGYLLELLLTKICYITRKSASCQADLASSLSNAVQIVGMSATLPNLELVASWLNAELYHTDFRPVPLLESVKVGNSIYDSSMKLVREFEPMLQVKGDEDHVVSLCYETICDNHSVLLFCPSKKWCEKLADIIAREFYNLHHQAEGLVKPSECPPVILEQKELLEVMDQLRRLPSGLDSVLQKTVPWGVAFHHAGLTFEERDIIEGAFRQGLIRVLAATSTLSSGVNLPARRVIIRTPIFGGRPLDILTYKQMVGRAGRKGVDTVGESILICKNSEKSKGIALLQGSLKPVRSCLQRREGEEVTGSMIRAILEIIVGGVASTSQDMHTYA

| SMILES | IC50 (cells; [2]) [nM] | pIC50 [1, 3] | IC50 (cells; [4]) [nM] | IC50 [1] [nM] | pIC50 [1] |
| --- | --- | --- | --- | --- | --- |
| COc1cnc(Cl)cc1-c1cc(C)ncc1C(=O)Nc1nc2c(s1)CN(Cc1ccncc1)CC2 [Example 192, 2'-chloro-5'-methoxy-6-methyl-N-(5-(pyridin-4-ylmethyl)-4,5,6,7-tetrahydrothiazolo[5,4-c]pyridin-2-yl)-[4,4'-bipyridine]-3-carboxamide] | 4820 | 6.99 |  |  |  |
| COc1cnc(Cl)cc1-c1cc(C)ncc1C(=O)Nc1nc2cc3c(cc2s1)N(c1ccnn1C)CCO3 [Example 194, 2'-chloro-5'-methoxy-6-methyl-N-(8-(1-methyl-1H-parazol-5-yl)-7,8-dihydro-6H-thiazolo[5',4':4,5]benzo[1,2-b][1,4]oxazin-2-yl)-[4,4'-bipyridine]-3-carboxamide] |  |  | 65.6 | 22.9 |  |
| COc1cnc(Cl)cc1-c1cc(C)ncc1C(=O)Nc1nc2cnc(N3CCC(NS(C)(=O)=O)CC3)cc2s1 [Example 195] |  |  | 34.2 | 6.18 |  |
| COc1cnc(Cl)cc1-c1cc(N2CCN(C)C3(CC3)C2=O)ncc1C(=O)Nc1nc2cnc(-c3c(C)nnn3C)cc2s1 [Example 196, 2'-chloro-N-(6-(1,4-dimethyl-1H-1,2,3-triazol-5-yl)thiazolo[4,5-c]pyridin-2-yl)-5'-methoxy-6-(4-methyl-8-oxo-4,7-diazaspiro[2.5]oct-7-yl)-[4,4'-bipyridine]-3-carboxamide] | 3.83 | 7.93 |  |  |  |
| COc1cnc(C(F)F)cc1-c1cc(C)ncc1C(=O)Nc1nc2cnc(N3CCC(O)CC3)nc2s1 [Example 198] |  |  | 23.3 |  | 8.37 |
| COc1cnc(C(F)F)cc1-c1cc(C)ncc1C(=O)Nc1nc2cnc(N3CC4(CC(O)C4)C3)nc2s1 [Example 199] | 31.6 | 8.11 |  |  |  |
| COc1cnc(Cl)c(F)c1-c1cc(C)ncc1C(=O)Nc1nc2cnc(N3CCC(O)CC3)nc2s1 [Example 200] | 7.07 | 8.19 |  |  |  |
| COc1cnc(C(F)F)cc1-c1cc(C)ncc1C(=O)Nc1nc2cnc(N3CCCCC3=O)nc2s1 [Example 201, 2'-(difluoromethyl)-5'-methoxy-6-methyl-N-(5-(2-oxopiperidin-1-yl)thiazolo[5,4-d]pyrimidin-2-yl)-[4,4'-bipyridine]-3-carboxamide] | 224 | 8.28 |  |  |  |
| COc1cnc(Cl)cc1-c1cc(C)ncc1C(=O)Nc1nc2ccc(N3CCOCC3=O)nc2s1 [Example 202] | 38.8 | 8.21 |  |  |  |
| COc1cnc(C(F)F)cc1-c1cc(C)ncc1C(=O)Nc1nc2cnc(N3CCOCC3=O)nc2s1 [Example 204] | 541 | 8.07 |  |  |  |
| COc1cnc(Cl)cc1-c1cc(C)ncc1C(=O)Nc1nc2cnc(-c3ncco3)cc2s1 [Example 205, 2'-chloro-5'-methoxy-6-methyl-N-(6-(oxazol-2-yl)thiazolo[4,5-c]pyridin-2-yl)-[4,4'-bipyridine]-3-carboxamide] | 20 | 8.28 |  |  |  |
| COc1cnc(Cl)cc1-c1cc(C)ncc1C(=O)Nc1nc2cnc(-c3nnc(C)o3)cc2s1 [Example 206] | 13.6 | 8.63 |  |  |  |
| COc1cnc(Cl)cc1-c1cc(C)ncc1C(=O)Nc1nc2cnc(-c3nnnn3C)cc2s1 [Example 208] | 141 | 7.44 |  |  |  |
| COc1cnc(Cl)cc1-c1cc(C)ncc1C(=O)Nc1nc2cnc(-c3nnn(C)n3)cc2s1 [Example 209] | 6.82 | 8.71 |  |  |  |
| COc1cnc(Cl)c(F)c1-c1cc(C)ncc1C(=O)Nc1nc2cnc(-c3c(C)cnn3C)cc2s1 [Example 210] | < 1.52 | 8.61 |  |  |  |
| COc1cnc(Cl)c(F)c1-c1cc(C)ncc1C(=O)Nc1nc2cnc(-c3c(C)noc3C)cc2s1 [Example 211] | 3.28 | 8.60 |  |  |  |
| COc1cnc(Cl)cc1-c1cc(C)ncc1C(=O)Nc1nc2cnc(-c3c(C)cnn3C(C)C)cc2s1 [Example 212] | 2.23 | 8.46 |  |  |  |
| COc1cnc(C(F)F)cc1-c1cc(C)ncc1C(=O)Nc1nc2cnc(-c3c(C)nnn3C3CC3)cc2s1 [Example 213, N-(6-(1-cyclopropyl-4-methyl-1H-1,2,3-triazol-5-yl)thiazolo[4,5-c]pyridin-2-yl)-2'-(difluoromethyl)-5'-methoxy-6-methyl-[4,4'-bipyridine]-3-carboxamide] | 4.13 | 8.44 |  |  |  |
| COc1cnc(Cl)cc1-c1cc(C)ncc1C(=O)Nc1nc2cnc(-c3c(C)nnn3C3CC3)cc2s1 [Example 214] |  |  | 27 |  | 8.17 |
| COc1cnc(C(F)F)cc1-c1cc(C)ncc1C(=O)Nc1nc2cnc(-c3c(C)nnn3C)c(F)c2s1 [Example 215, 2'-(difluoromethyl)-N-(6-(1,4-dimethyl-1H-1,2,3-triazol-5-yl)-7-fluorothiazolo[4,5-c]pyridin-2-yl)-5'-methoxy-6-methyl-[4,4'-bipyridine]-3-carboxamide] | 2.92 | 8.51 |  |  |  |
| COc1cnc(C(F)F)cc1-c1cc(C)ncc1C(=O)Nc1nc2cnc(-c3nncn3C)cc2s1 [Example 218] |  |  | 656 | 31.1 |  |
| COc1cnc(Cl)cc1-c1cc(C)ncc1C(=O)Nc1nc2cnc(-c3c(C)cnn3CCN(C)C)cc2s1 [Example 219, 2'-chloro-N-(6-(1-(2-(dimethylamino)ethyl)-4-methyl-1H-parazol-5-yl)thiazolo[4,5-c]pyridin-2-yl)-5'-methoxy-6-methyl-[4.4'-bipyridine]-3-carboxamide trifluoroacetate] |  |  | 63.1 | 3.31 |  |
| COc1cnc(Cl)cc1-c1cc(C)ncc1C(=O)Nc1nc2cnc(-c3c(C)cnn3CCO)cc2s1 [Example 220] | 22.2 | 8.60 |  |  |  |
| COc1cnc(Cl)cc1-c1cc(C)ncc1C(=O)Nc1nc2cnc(-c3nn(CCO)cc3C)cc2s1 [Example 221] | 1850 | 8.32 |  |  |  |
| COc1cnc(Cl)cc1-c1cc(C)ncc1C(=O)Nc1nc2ccc(-c3c(C)nnn3C)cc2s1 [Example 222, 2'-chloro-N-(6-(1,4-dimethyl-1H-1,2,3-triazol-5-yl)benzo[d]lthiazol-2-yl)-5'-methoxy-6-methyl-[4.4'-bipyridine]-3-carboxamide] |  |  | 9.62 | 4.36 |  |
| COc1cnc(C(F)F)cc1-c1cc(C)ncc1C(=O)Nc1nc2ccc(-c3c(C)nnn3C)cc2s1 [Example 223] | 10 | 8.60 |  |  |  |
| COc1cnc(Cl)c(F)c1-c1cc(C)ncc1C(=O)Nc1nc2ccc(-c3c(C)nnn3C)cc2s1 [Example 224] | 3.16 | 8.40 |  |  |  |
| COc1cnc(Cl)cc1-c1cc(C)ncc1C(=O)Nc1nc2cc3c(cc2s1)C(=O)N(C)CCC3 [Example 225, 2'-chloro-5'-methoxy-6-methyl-N-(6-methyl-5-oxo-6,7,8,9-tetrahydro-5H-thiazolo[4',5': 4,5]benzo[1,2-c]aza-2-yl)-[4,4'-bipyridine]-3-carboxamide] |  |  | 56.2 | 21.1 |  |
| COc1cnc(Cl)cc1-c1cc(C)ncc1C(=O)Nc1nc2cnc(-c3c(C(F)F)nnn3C)cc2s1 [Example 226, 2'-chloro-N-(6-(4-(difluoromethyl)-1-methyl-1H-1,2,3-triazol-5-yl)thiazolo[4,5-c]pyridin-2-yl)-5'-methoxv-6-methyl-[4.4'-bipyridine]-3-carboxamide] |  |  | 8.46 | 4.02 |  |
